# Experimental data published in patent US20240277873A1, “ULTRABRIGHT […] PROBES FOR DETECTION AND IMAGING” (Nanyang Technological University, priority 2021, published 2024).
# Residues, ends and D or L forms follow the SMILES beside them. *: point of attachment. X1 = COC(=O)/C=C/c1ccc(C2(OC)OOC23C2CC4CC(C2)CC3C4)cc1OCc1ccc(N*)cc1
# Key:
# [1] = obtained from the literature (ACS Cent. Sci. 2017, 3, 349-358); cited from earlier work
# [2] = Half-life and CL emission of uncaged BTPD in PBS; assay type: physicochemical; details: in PBS (10% DMSO) at 37° C.
# Description: FIG. 13 depicts the half-lives of BTPDSu (20 μM) and BTPD (20 μM) in pure DMSO upon addition of excess O2^•- (100 μM) and in 10 mM PBS (10% DMSO, pH 7.4) at 37° C., respectively.
# [3] = Blood test: chemiluminescence after incubation in healthy mouse blood; details: 20 μM, 30 min, 100 μL blood
# Description: BTPDNe (20 μM) and MPDNe (20 μM) were incubated for 30 min in healthy mouse blood (100 μL), respectively. Chemiluminescence intensities were measured by IVIS system bioluminescence with an acquisition time of 60 s.
# NE = target: T1, NE (Homo sapiens, UniProt P08246); experiment: Chemiluminescence and fluorescence changes of BTPDNe and MPDNe in the presence of NE (response, selectivity, LOD, half-life); assay type: biochemical
# T1 sequence (P08246 30-267): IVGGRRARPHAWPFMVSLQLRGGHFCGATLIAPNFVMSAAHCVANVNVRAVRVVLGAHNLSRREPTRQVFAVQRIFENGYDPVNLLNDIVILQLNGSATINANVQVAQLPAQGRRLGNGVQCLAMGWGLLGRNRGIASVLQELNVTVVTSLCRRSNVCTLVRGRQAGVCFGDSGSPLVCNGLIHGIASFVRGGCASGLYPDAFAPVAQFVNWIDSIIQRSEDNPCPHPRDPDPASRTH
# Description: Chemiluminescence and fluorescence changes of BTPDNe (20 μM) were determined in the presence of NE (0.1 U/ml), other different enzymes (˜0.1 U/mL, APN, ALP, Cas-3, cat B, GGT, β-gal and NTR) in 50 mM Tris, 1 M NaCl, 0.05% (w/v) Brij-35, pH 7.5 at 37° C. after 30 min incubation.
# Chemiluminescence and fluorescence changes of BTPDNe and MPDNe (20 μM) in the presence of NE (0.1 U/mL), or other different enzymes (˜0.1 U/mL, APN, ALP, Cas-3, Cat B, GGT, β-gal, NTR, CatG and PR3) were tested after 30 min incubation in 50 mM Tris, 1 M NaCl, 0.05% (w/v) Brij-35, pH 7.5 at 37° C.
# To determine the LOD for NE enzyme detection, the chemiluminescence of BTPDNe was recorded in 50 mM Tris, 1 M NaCl, 0.05% (w/v) Brij-35, pH 7.5 at 37° C. with different concentrations of NE (0, 0.05, 0.1, 0.5, 1, and 2 U/ml) for 30 min incubation. Then, initial reaction velocity was calculated.
# LPS-treated mice = experiment: Real-time chemiluminescence imaging in LPS-induced peritonitis model; assay type: in vivo; details: LPS-treated mice
# Description: The model was induced by intraperitoneal injection of LPS (15 ng) in 100 μL of PBS or PBS only as a control. Probe BTPDNe (40 μM·Kg^−1) or MPDNe (40 μM·Kg^−1) in PBS (10 mM, pH 7.4) containing 10% DMSO was intraperitoneally injected in mice. Then, chemiluminescent signals at different post-injection timepoints (0, 5, 10, 20, 45 and 60 min) were recorded using IVIS system bioluminescence with acquiring time of 120 s. After 3 h, the peritoneum was flushed with PBS (5 mL)+EDTA (5 mM). After erythrocyte lysis, neutrophils from C57Bl/6 mice were stained with a PE-labeled CD. After treatment with LPS for 3 h, CD11c antibody and an APC-labeled Ly6G antibody were added to the neutrophils, and the neutrophils were analyzed for double-positive events using flow cytometry (BD Biosciences). Data analysis was performed using Flowjo V10. Neutrophils were gated as CD45+CD11b+Ly6G+cells after the exclusion of doublets.
# Fluorescence and chemiluminescence in vivo imaging of the probes were measured by an IVIS spectrum imaging system. Chemiluminescence imaging of the cells was recorded on LX71 inverted microscope. Tissue slices were cut by Leica, Germany slicer and imaged by a Nikon ECLIPSE 80i microscope. The images of tissue sections and cells were recorded with a LSM800 confocal laser scanning microscope. The white light was provided by 150 W LED High Bay Thermo Light.
# neutrophils = experiment: In vitro cell chemiluminescent imaging; assay type: cell-based; details: probe 10 μM
# Description: 3T3 cells and immune cells (neutrophils, DC cells, T-cells and macrophage) (10^4 cells) were seeded into confocal cell culture dishes (dia. 15 mm) and incubated for 24 h. […] After incubation, the medium was removed, and the cells were washed thrice. Chemiluminescence imaging of the cells were recorded on LX71 inverted microscope (Olympus), which was equipped with infinity 3-1 (Lumenera) CCD camera. During imaging, the excitation light was blocked and the images were recorded under an open filter, with an acquisition time of 60 s.
# [4] = Chemiluminescence kinetic studies (half-lives, CL emission) of caged probes in the presence of O2•-; assay type: physicochemical; details: for CL Emission: caged probe after activation
# Description: FIG. […]
# […] The chemiluminescent intensities were plotted as a function of time.
# […] The chemiluminescence signal was recorded by the microplate reader to calculate half-lives of BTPDSu at different pHs.
# [5] = Stability of BTPDSu at different pHs (UV spectra); assay type: physicochemical; details: 20 μM, pH 5-9 buffers with 10% DMSO, 2 h, 37° C.
# Description: BTPDSu and ABTPD (20 μM) were stored at different pHs (pH 5, 6, 7, 8 and 9) containing 10% DMSO for 2 h. Then, UV spectra of BTPDSu and fluorescence spectra of ABTPD were measured at different pHs.
# [6] = Chemiluminescence quantum yield in the presence of O2•-; assay type: physicochemical; details: probe 20 μM, O2•- 100 μM, PBS (10 mM, pH 7.4, 10% DMSO), 37° C.
# Description: The chemiluminescence QYs of BOPDSu, BTPDSu, MBPDSu, and MPDSu (20 μM) were measured in the presence of O2^•- (100 μM) in PBS (10 mM, pH 7.4, 10% DMSO) at 37° C. The fluorescence QYs were determined by using Rhodamine B as a standard dye (QY 36%) in PBS (10 mM, pH 7.4) (X. Zhen et al., ACS Nano 2016, 10, 6400-6409). The fluorescence QY of AMPD was obtained from the literature (O. Green et al., ACS Cent. Sci. 2017, 3, 349-358).
# [7] = Chemiluminescence and fluorescence changes of probes toward O2•- (KO2): response, selectivity, LOD
# Description: The chemiluminescence and fluorescence changes of BOPDSu, BTPDSu, MBPDSu and MPDSu (20 μM) were recorded at different concentrations of RONS (40 μM) and other metal ions (100 μM). BOPDSu, BTPDSu, MBPDSu and MPDSu (20 μM) in phosphate buffered saline (PBS) buffer were treated in the presence of different RONS (40 μM), and metal ions (Mg^2+, Ca^2+ or Fe^2+, 100 μM) at 37° C.
# The chemiluminescence signals were recorded at different concentrations of KO2 (0, 50, 100, 250, 500 and 1000 nM). Then, the limit of detection (LOD) of BOPDSu, BTPDSu, MBPDSu and MPDSu were calculated by chemiluminescence intensities based on the equation: LOD=3σ/k, where σ is the standard deviation of emission intensity of blank, and k is the slope of plot of emission intensities.
compound,measurement,setting,value
COC(=O)/C=C/c1ccc(C(=O)OC)cc1O [AMPD],"ΦFl, fluorescence QY of activated probe",[1],3.1%
COC1(c2ccc(-c3nc4ccccc4s3)c(O)c2)OOC12C1CC3CC(C1)CC2C3 (centres unmarked) [BTPD],CL Emission,[2],~515 nm
"COC(=O)/C=C/c1ccc(C2(OC)OOC23C2CC4CC(C2)CC3C4)cc1OCc1ccc(NC(=O)[C@@H](NC(=O)[C@@H]2CCCN2C(=O)[C@H](C)NC(=O)[C@H](C)NC(C)=O)C(C)C)cc1 (some centres unmarked) [MPDNe, reference compound] (Ac-AAPV-X1)",chemiluminescence intensities after incubation with healthy mouse blood,[3],Negligible
same,selectivity towards NE over other enzymes,"NE; APN, ALP, Cas-3, cat B, GGT, furin, β-gal, NTR, PR3, CatG (~0.1 U/mL)",high selectivity
same,chemiluminescence enhancement after incubation with NE,"NE; probe 20 μM, NE 0.1 U/mL, 50 mM Tris, 1 M NaCl, 0.05% Brij-35, pH 7.5, 37° C., 30 min, BTPDNe at 515 nm, MPDNe at 550 nm",65.1 fold
same,chemiluminescent signals after 60 min,LPS-treated mice; 60 min post injection,not
same,maximum chemiluminescent signal enhancement in peritoneum relative to negative control group,"LPS-treated mice; 3 h post LPS, i.p. probe 40 μM·kg^−1",8.5 fold
same,"activated chemiluminescence signal in neutrophils, 30 min",neutrophils; incubation 30 min,56.4 pixels
same,"activated chemiluminescence signal in neutrophils, 1 h",neutrophils; incubation 1 h,16.2 pixels
benzothiazole-phenoxyl-dioxetane [BTPDSu],chemiluminescence signal after 4 h incubation with O2•-,"[4]; BTPDSu 100 μM, O2•- 4 eq., PBS (10 mM, pH 7.4, 10% DMSO), 37° C.",still observable by naked eye
same,CL Emission,[4]; in PBS (10% DMSO) at 37° C.,520 nm
same,CL Emission,[4]; in pure DMSO,485 nm
same,stability: UV spectra at different pHs,[5],no obvious changes
same,"ΦCl, chemiluminescence QY",[6],0.137 einsteins/mol
same,LOD against O2•-,"[7]; KO2 0-1000 nM, PBS (10 mM, pH 7.4, 10% DMSO), 37° C., LOD=3σ/k",6.8 nM
same,chemiluminescence intensity increase after addition of O2•-,"[7]; probe 20 μM, O2•- 40 μM for 10 s, PBS pH 7.4, 37° C., at 480 / 520 / 580 / 540 nm",2960 times
same,fluorescent signal enhancement upon cleavage by O2•-,"[7]; probe 20 μM, PBS (10 mM, pH 7.4, 10% DMSO), 37° C., at ~486 / 532 / 582 / 542 nm",42.1 folds
